Results reported in patent US12054762B2, “Methods of protein production using anti-senescence compounds” (WYETH LLC, priority 2007, dated 2024).
Read-outs that look alike come from different tables or passages of the source.

What was measured:
MYO-29 cell line [1] = assay: Carnosine addition to 1 L bioreactor fed-batch culture, MYO-29 cell line; type: cell-based; details: 20 mM carnosine added day 4
Protocol: Five bioreactors were inoculated with 0.9×10^6 cells/ml with a 1 L working volume of a MYO-29 cell line in a serum free inoculation medium. All the bioreactors were fed 5% (v/v) of a feed medium on days 3, 5, 7, and 12 of a 14-day run. A day 10 feed of 5% (v/v) of the feed medium was added to two of the control bioreactors and one containing carnosine. The conditions of the bioreactors were held at a temperature of 37° C., a pH of 7.00, and a dissolved oxygen level at 30% air saturation.
The bioreactors were harvested on day 14 of the production run. Samples were taken throughout the run to monitor the progress of the cell culture medium. The controls performed as expected.

[2] = system: human diploid fibroblasts and human fetal lung (primary cell lines); details: 20 mM in culture media; cited from earlier work
[3] = system: human or rodent transformed and neoplastic cells; details: cited from earlier work
MYO-29 cell line [4] = assay: Dish scale carnosine experiments, MYO-29 cell line culture; type: cell-based; details: 10 mM carnosine added to dishes on day 4, 7 or 10; harvested day 12; vs no carnosine
Protocol: A MYO-29 cell line was cultured in a serum free production medium in a bioreactor with a 1 L working volume and was temperature shifted from 37° C. to 31° C. on day 4. The pH of the bioreactor was held at 7.00 and the dissolved oxygen was at 30% air saturation. Cell culture medium was then taken from the bioreactor on day 4, day 7, and day 10 and put into culture dishes with an 8 ml working volume and placed into a 31° C. incubator, where the dish cultures were cultured until day 12. The cells were supplemented with a feed medium on days 5 and 7. On day 5, 10% (v/v) of feed medium was added to the cell cultures and on day 7, 5% (v/v) of feed medium was added to the cell cultures. 10 mM of carnosine was added on day 4, day 7, and day 10, respectively, to the dishes and the cell culture medium was harvested on day 12.

[5] = system: Chinese Hamster Ovary (CHO) Cell Line Producing Recombinant TNFR Fusion Protein; assay: Carnosine in 1 L bioreactor culture of cells producing recombinant TNFR fusion protein; type: cell-based; details: 20 mM carnosine added day 2
Protocol: A TNFR fusion protein cell line was cultured in a serum free production medium in a bioreactor with a 1 L working volume. On day 1, the temperature was shifted from 37° C. to 29.5° C., sodium butyrate was added to a final concentration of 1 mM, and HMBA was added to a final concentration of 3 mM. The pH of the bioreactor was held at 6.95 and the dissolved oxygen was at 60% air saturation. On day 2, carnosine was added to the culture to a final concentration of 20 mM. The cells were supplemented with a 5% (v/v) feed medium on days 3, 6, 8, and 10. The cell culture medium was harvested on day 12. Four separate control bioreactors were run in which CHO cells expressing a recombinant TNFR fusion protein were grown under conditions identical to those described above, except that carnosine was not added on day 2. The control data in FIGS. 4-11 is the average of the four control bioreactor runs.

MYO-29 cell line [6] = assay: Different concentrations of carnosine in 1 L bioreactor culture, MYO-29 cell line; type: cell-based
Protocol: Four bioreactors were inoculated with 0.4×10^6 cells/ml with a 1 L working volume of a MYO-29 cell line in a serum free inoculation medium. All the bioreactors were all fed 5% (v/v) of a feed medium on day 7 of the 14-day run. The conditions of the bioreactor were held at a temperature of 37° C., a pH of 7.00, and a dissolved oxygen level at 30% air saturation.
All cells were cultured for four days at which point the temperature was shifted in all of the bioreactors to 31° C. […] All bioreactors were harvested on day 12 of the production run. Samples were taken throughout the run to monitor the progress of the cell culture medium. The controls performed generally as expected, except one control had slightly lower daily viabilities than previously seen.

[7] = addition of the chemical agent to cell culture; cited from earlier work
[8] = vs average of 4 control bioreactors

NCCC(=O)N[C@@H](Cc1cnc[nH]1)C(=O)O [carnosine]
daily cell viability upon being harvested (MYO-29 cell line [1]; harvest day 14, compared to bioreactors without carnosine): higher | titer at the time of harvest (MYO-29 cell line [1]; harvest day 14, vs controls): higher titer | cumulative specific cellular productivity (MYO-29 cell line [1]; vs controls): better | high molecular weight aggregates (MYO-29 cell line [1]; vs controls): decrease | lifespan of cells [2]: extend the lifespan | cytotoxicity ([3]; Dulbecco's Modified Eagle's Medium (DMEM), contains 1 mM pyruvate): not | cytotoxicity ([3]; Minimal Essential Medium (MEM), lower glucose levels): cytotoxic | acidic peaks (MYO-29 cell line [4]): decreasing | high molecular weight aggregates (MYO-29 cell line [4]): decreasing | amount of misfolded and/or aggregated TNFR fusion protein ([5]; hydrophobic interaction chromatography (HIC), vs controls): significantly reduced | amount of high molecular weight (HMW) aggregates ([5]; size exclusion chromatography (SEC), vs controls): significantly reduced | cell growth (viable cell density) [5, 8]: not significantly affected | cell viability [5, 8]: not significantly affected | glycosylation of the produced TNFR fusion protein (total sialylation, sialylated N-linked oligosaccharides) ([5]; vs controls): not significantly different | product titer ([5]; vs controls): increased | specific cellular productivity ([5]; vs controls): increased | high molecular weight aggregates (MYO-29 cell line [6]; 20 mM or 40 mM carnosine added day 4, compared to the controls): decrease | daily titer (MYO-29 cell line [6]; 20 mM or 40 mM carnosine added day 4, compared with one of the controls): similar | daily cell viability upon being harvested (MYO-29 cell line [6]; 20 mM or 40 mM carnosine added day 4, harvest day 12, compared to two control bioreactors): higher viability | daily viable cell density (MYO-29 cell line [6]; 20 mM or 40 mM carnosine added day 4, vs controls): fairly similar with the exception of the bioreactor with 4 mM of carnosine | cumulative specific cellular productivity (MYO-29 cell line [6]; 40 mM carnosine added day 4): higher

CCCC(=O)[O-].[Na+] [sodium butyrate]
cell growth and viable cell number [7]: cell growth ceases and the viable cell number decreases
